Laboratory results published in US20150258082A1, “COMBINATION THERAPY WITH GLUTAMINASE INHIBITORS” (priority 2014, published 2015).
Read-outs that look alike come from different tables or passages of the source.

How the values were obtained:
[1] = test system: RPMI-8226 multiple myeloma xenograft; assay: Multiple myeloma xenograft study, compound 670 and lenalidomide; format: in vivo, mice; settings: compound 670 200 mg/kg oral BID + lenalidomide 30 mg/kg oral QD, 24 days; P<0.0001 vs vehicle and lenalidomide alone, P<0.01 vs CB-839 alone
Procedure: Female scid/beige mice (n=40) age 7-8 weeks were implanted subcutaneously with 3×10^7 RPMI-8226 multiple myeloma cells per mouse mixed 1:1 with Matrigel. […] Tumors were measured with calipers three times per week and tumor volume calculated using the formula tumor volume (mm^3)=(a×b^2/2) where ‘b’ is the smallest diameter and ‘a’ is the largest perpendicular diameter. ****P-value<0.0001 (One-way ANOVA vs. vehicle and vs. Lenalidomide alone) **P-value<0.01 (One-way ANOVA vs. CB-839 alone).

[2] = test system: RPMI-8226 multiple myeloma xenograft; assay: Multiple myeloma xenograft study with CB-839, pomalidomide and combination; format: in vivo, mice; settings: CB-839 200 mg/kg oral BID + pomalidomide 1 mg/kg oral QD; P<0.01
Procedure: Female scid/beige mice (age 7-9 weeks) were implanted subcutaneously with 1×10^7 RPMI-8226 myeloma cells mixed 1:1 with matrigel. Tumors were measured with calipers three times per week and tumor volume calculated using the formula tumor volume (mm^3)=(a×b^2/2) where ‘b’ is the smallest diameter and ‘a’ is the largest perpendicular diameter.

P493-6 (myc "on") cells = assay: Cell Proliferation Assay, P493-6 cells, 72 hrs; format: cell-based
Procedure: For compound assay, P493-6 cells were plated in 96-well V-bottom plates on the day of compound addition in 50 μl of growth media at a cell density of 200,000 cells/ml (10,000 cells/well). Compounds were serially diluted in 100% DMSO at 200-times the final concentration. Compounds were diluted 100-fold into growth media and then 50 μl of this mixture was added to cell plates making the final concentration of DMSO 0.5%. Cells were incubated with compound for 72 hrs at 37° C. with 5% CO2 and analyzed for antiproliferative effects either by Cell Titer Glo (Promega) or FACS analysis using the Viacount (Millipore) kit on the Guava instrument.

[3] = test system: MM1S cells and RPMI-8226 cells; assay: Combination of compound 670 with pomalidomide or lenalidomide, cell survival and combination index; format: cell-based; settings: 72 hours; cells resistant to pomalidomide or lenalidomide or not; combination index by Calcusyn
Procedure: At the end of the incubation, cell viability was measured using Cell Titer Glo as per manufacturer's protocol (Promega, Madison, Wis.). Measured values for compound-treated cells were normalized to DMSO-treated cells and data is reported as a cell survival ratio with a value of 1 (one) corresponding to maximum cell survival and a value of 0 (zero) corresponding to no cell survival. Cell survival ratios for all compound treatments are represented as bar graphs. Combination indices were calculated using the Calcusyn program (biosoft.com) and reported for individual mixtures of compound 670 and either pomalidomide or lenalidomide. Compound mixtures that produced a synergistic anti-tumor activity are highlighted.

[4] = biological target: T1, recombinant form of Glutaminase 1 (GAC) (Homo sapiens, UniProt O94925); assay: Recombinant Enzyme Assay (no preincubation); format: biochemical; settings: read-out: GAC Delta N2 IC50 no preinc
T1 sequence (O94925 137-598 isoform O94925-3 limits assumed): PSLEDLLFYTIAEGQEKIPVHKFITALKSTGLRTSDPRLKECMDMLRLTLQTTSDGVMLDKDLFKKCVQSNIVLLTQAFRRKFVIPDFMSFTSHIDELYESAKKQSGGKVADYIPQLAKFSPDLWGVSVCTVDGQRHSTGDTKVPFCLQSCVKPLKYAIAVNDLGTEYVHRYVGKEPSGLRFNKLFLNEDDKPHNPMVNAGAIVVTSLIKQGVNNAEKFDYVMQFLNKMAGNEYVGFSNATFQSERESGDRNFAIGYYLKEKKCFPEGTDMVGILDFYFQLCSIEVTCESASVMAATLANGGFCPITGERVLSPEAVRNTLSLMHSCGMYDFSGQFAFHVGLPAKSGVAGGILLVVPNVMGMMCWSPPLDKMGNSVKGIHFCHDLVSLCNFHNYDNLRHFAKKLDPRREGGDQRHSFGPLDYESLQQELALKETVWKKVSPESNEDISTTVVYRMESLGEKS
Procedure: Compounds were assessed for their ability to inhibit the enzymatic activity of a recombinant form of Glutaminase 1 (GAC) using a biochemical assay that couples the production of glutamate (liberated by GAC) to glutamate dehydrogenase (GDH) and measuring the change in absorbance for the reduction of NAD^+ to NADH. […] Enzymatic reaction was started with the addition of 50 μL of enzyme solution (50 mM Tris-HCl pH 8.0, 0.2 mM EDTA, 150 mM K2HPO4, 0.1 mg/ml BSA, 1 mM DTT, 10 ppm antifoam, 4 units/ml GDH, 4 mM adenosine diphosphate, and 4 nM GAC) and read in a Molecular Devices M5 plate reader at 20° C. The plate reader was configured to read absorbance (λ=340 nm) in kinetic mode for 15 minutes. Data was recorded as milli-absorbance units per minute and slopes were compared to a control compound and a DMSO-only control on the same plate. Compounds with slopes less than the DMSO control were considered inhibitors and plate variability was assessed using the control compound.

RPMI-8226 cells = assay: Anti-proliferative activity in multiple myeloma cell line RPMI-8226 (Cell Titer Glo, 72 hrs); format: cell-based
Procedure: Multiple myeloma cell lines RPMI-8226 and MM1S were seeded in 96-well plates at a density of 10,000 cells/well. […] Cells were incubated for 72 hrs at 37° C. with 5% CO2 and analyzed for antiproliferative effects by Cell Titer Glo (Promega). Cell proliferation (% of DMSO control) was determined by comparing the Cell Titer Glo signal (rfu) of compound 670-, lenalidomide-, or pomalidomide-treated cells versus DMSO treated cells. Cell viability (% DMSO of control) was plotted against compound concentration and resulting curves were fit using a four-parameter dose response to determine IC50 values.

[5] = biological target: T1, recombinant form of Glutaminase 1 (GAC); assay: Recombinant Enzyme Assay - Time Dependence (60 min preincubation); format: biochemical
Procedure: The enzyme/compound mix was sealed with sealing foil (USA Scientific) and allowed to incubate, with mild agitation, for 60 minutes at 20° C. Enzymatic reaction was started with the addition of 50 μL of substrate solution (50 mM Tris-HCl pH 8.0, 0.2 mM EDTA, 150 mM K2HPO4, 0.1 mg/ml BSA, 1 mM DTT, 20 mM L-glutamine, 2 mM NAD^+, and 10 ppm antifoam) and read in a Molecular Devices M5 plate reader at 20° C. The plate reader was configured to read absorbance (λ=340 nm) in kinetic mode for 15 minutes. Data was recorded as milli-absorbance units per minute and slopes were compared to a control compound and a DMSO-only control on the same plate. Compounds with slopes less than the DMSO control were considered inhibitors and plate variability was assessed using the control compound.

[6] = P493-6, 72 h, read-out: Cell prolif P493 72h IC50, P493 cells, 72h

Q: With `O=C(Cc1cccc(OC(F)(F)F)c1)Nc1ccc(CCCCc2nnc(NC(=O)Cc3ccccn3)s2)nn1` [compound 670] as the compound, how does the “reduction in tumor size, combination with lenalidomide vs either agent alone” value [1] read?
A: greater reduction in tumor size

Q: And the “reduction in tumor size, combination with pomalidomide vs either agent alone” value [2]?
A: greater reduction in tumor size

Q: And the IC50 (P493-6 (myc "on") cells; read-out: Cell prolif P493 72h IC50, P493 cells, 72h)?
A: 30 nM

Q: What about the “combination effect with lenalidomide in multiple myeloma cells” value [3] of the same compound?
A: synergizes

Q: And the “combination effect with pomalidomide in multiple myeloma cells” value [3]?
A: synergizes

Q: With `O=C(COC(C(=O)Nc1nnc(CCCCc2nnc(NC(=O)C(COC(=O)C3CCNCC3)c3ccccc3)s2)s1)c1ccccc1)C1CCNCC1` (centres unmarked) [compound 302] as the compound, how does the IC50 (P493-6 (myc "on") cells; [6]) read?
A: 870 nM

Q: What about the IC50 [4] of the same compound?
A: 7000 nM

Q: `Nc1cccc2c1CN(C1CCC(=O)NC1=O)C2=O` (centres unmarked) [lenalidomide] was tested. Which “sensitivity of RPMI-8226 myeloma cells to the agent” value (RPMI-8226 cells) did it give?
A: resistant

Q: With `C=C(C(=O)Nc1nnc(CCCCc2nnc(NC(=O)C(COC(=O)CCN3CCOCC3)c3ccccc3)s2)s1)c1ccccc1` (centres unmarked) [compound 281] as the compound, how does the IC50 (P493-6 (myc "on") cells; [6]) read?
A: 660 nM

Q: With `O=C(Cc1cccc(F)c1)Nc1nnc(CCCCc2nnc(NC(=O)C[C@@H](O)C(=O)O)s2)s1` [compound 153] as the compound, how does the IC50 (P493-6 (myc "on") cells; [6]) read?
A: > 50000 nM

Q: What about the IC50 [4] of the same compound?
A: 1000 nM

Q: Which IC50 (P493-6 (myc "on") cells; [6]) does the source give for `COC(=O)NCC1=CC(CC(=O)Nc2ccc(CCCCc3nnc(NC(=O)Cc4cccc(CNC(=O)OC)c4)s3)nn2)=CCC1` [compound 573] here?
A: 15 nM

Q: And the IC50 [5]?
A: 4 nM

Q: Which IC50 (P493-6 (myc "on") cells; P493-6, 72 h, read-out: Cell prolif P493 72h IC50, P493-6 cells, 72 h) does the source give for `O=C(Cc1ccc(Cl)c(CC(F)(F)F)c1)Nc1ccc(CCCCc2nnc(NC(=O)Cc3ccccn3)s2)nn1` [compound 721] here?
A: 22 nM

Q: Which “sensitivity of RPMI-8226 myeloma cells to the agent” value (RPMI-8226 cells) does the source give for `Nc1cccc2c1C(=O)N(C1CCC(=O)NC1=O)C2=O` (centres unmarked) [pomalidomide] here?
A: resistant

Q: `O=C(Nc1nnc(CCCCc2nnc(NC(=O)[C@@H]3CC3c3ccccc3)s2)s1)C1C[C@H]1c1ccccc1` (some centres unmarked) [compound 90] was tested. Which IC50 [4] did it give?
A: > 20000 nM

Q: `CCOc1ccc(C(O)C(=O)Nc2nnc(CCCCc3ccc(NC(=O)Cc4ccccc4)nn3)s2)cc1` (centres unmarked) [compound 558] was tested. Which IC50 (P493-6 (myc "on") cells; [6]) did it give?
A: 28 nM

Q: `O=C(Nc1nnc(CCSCCc2nnc(NC(=O)C(c3ccccc3)N3CCNCC3)s2)s1)C(c1ccccc1)N1CCNCC1` (centres unmarked) [compound 79] was tested. Which IC50 (P493-6 (myc "on") cells; [6]) did it give?
A: 20000 nM

Q: With `O=C(OCCCN1CCOCC1)OCN(C(=O)Cc1ccccc1)c1nnc(CCSCCc2nnc(N(COC(=O)OCCCN3CCOCC3)C(=O)Cc3ccccc3)s2)s1` [compound 28] as the compound, how does the IC50 (P493-6 (myc "on") cells; [6]) read?
A: 1000 nM

Q: `O=C(COC(C(=O)Nc1nnc(CCCCc2nnc(NC(=O)C(COC(=O)C3CCN(C(=O)OCc4ccccc4)CC3)c3ccccc3)s2)s1)c1ccccc1)C1CCN(C(=O)OCc2ccccc2)CC1` (centres unmarked) [compound 301] was tested. Which IC50 (P493-6 (myc "on") cells; [6]) did it give?
A: 230 nM
